Data reported in PubChem BioAssay AID330 (DTP/NCI, 2004).
Inconclusive results and toxic doses are left out.

Test system: P388 leukemia ip, CD2F1 mice, survival T/C
Assay: NCI In Vivo Anticancer Drug Screen. Data for tumor model P388 Leukemia (intraperitoneal) in CD2F1 (CDF1) mice
Conditions: endpoint: median survival time, higher = longer survival
How it was run: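 Mice carrying the transplanted tumor received test compound or vehicle. Survival was recorded in each group, and the value is the treated-group measurement divided by that of the vehicle-treated control group.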

[1] = dose: 200.0 mg/kg/injection, schedule: Q01DX005 (ip), vehicle: Klucel (hydroxypropylcellulose) (HPC)

CC(C)=CCCC(C)=C(C#N)C#N
T/C (dose: 100.0 mg/kg/injection, schedule: Q04DX003 (ip), vehicle: saline with Tween-80): 100 % of control

CC12OC(=O)CC1C(c1ccccc1)(c1ccccc1)O2 (centres undefined)
T/C (dose: 60.0 mg/kg/injection, schedule: Q01DX005 (ip), vehicle: saline with Tween-80): 100 % of control
T/C (dose: 120.0 mg/kg/injection, schedule: Q01DX005 (ip), vehicle: saline with Tween-80): 94 % of control
T/C (dose: 240.0 mg/kg/injection, schedule: Q01DX005 (ip), vehicle: saline with Tween-80): 88 % of control

CN(C)CC1CCC2=C(C1=O)C(c1ccc(Cl)c(Cl)c1)C1=C(CCC(CN(C)C)C1=O)O2 (centres undefined)
T/C (dose: 60.0 mg/kg/injection, schedule: Q01DX005 (ip), vehicle: suspension in saline): 100 % of control
T/C (dose: 120.0 mg/kg/injection, schedule: Q01DX005 (ip), vehicle: suspension in saline): 106 % of control
T/C (dose: 240.0 mg/kg/injection, schedule: Q01DX005 (ip), vehicle: suspension in saline): 99 % of control

Cc1cccc(Nc2nc(C)nc3[nH]cc(-c4ccccc4)c23)c1
T/C (dose: 6.25 mg/kg/injection, schedule: Q01DX005 (ip), vehicle: Klucel (hydroxypropylcellulose) (HPC)): 91 % of control
T/C (dose: 12.5 mg/kg/injection, schedule: Q01DX005 (ip), vehicle: Klucel (hydroxypropylcellulose) (HPC)): 90 % of control
T/C [1]: 88 % of control

N#CCCCCC/C=C/CCCCCCC1C=CCC1 (centres undefined)
T/C (dose: 100.0 mg/kg/injection, schedule: Q01DX001 (ip), vehicle: saline): 100 % of control
T/C (dose: 200.0 mg/kg/injection, schedule: Q01DX001 (ip), vehicle: saline): 100 % of control
T/C (dose: 400.0 mg/kg/injection, schedule: Q01DX001 (ip), vehicle: saline): 96 % of control

CN(C)C1CS(=O)(=O)OC2=C1CCc1sccc12 (centres undefined)
T/C (dose: 60.0 mg/kg/injection, schedule: Q01DX005 (ip), vehicle: Klucel (hydroxypropylcellulose) (HPC)): 102 % of control
T/C (dose: 120.0 mg/kg/injection, schedule: Q01DX005 (ip), vehicle: Klucel (hydroxypropylcellulose) (HPC)): 100 % of control
T/C (dose: 240.0 mg/kg/injection, schedule: Q01DX005 (ip), vehicle: Klucel (hydroxypropylcellulose) (HPC)): 97 % of control

Cc1nc2sccc2c(=O)n1C
T/C (dose: 50.0 mg/kg/injection, schedule: Q01DX005 (ip), vehicle: Klucel (hydroxypropylcellulose) (HPC)): 97 % of control
T/C (dose: 100.0 mg/kg/injection, schedule: Q01DX005 (ip), vehicle: Klucel (hydroxypropylcellulose) (HPC)): 98 % of control
T/C [1]: 103 % of control
